In US10723699B2 (Hyundai Pharm Co., Ltd., priority 2015, dated 2020):
Where two headings read alike, the source gives them in different places.

Target: T1, G protein-coupled receptor 119 (GPR-119) (Mesocricetus auratus, UniProt A0A1U8CD06)
T1 construct: hamster-derived β-cells containing G protein-coupled receptor 119 (GPR-119), HIT-T15 cells; host or cells: HIT-T15 (hamster pancreatic β-cells)
T1 sequence (A0A1U8CD06 1-334): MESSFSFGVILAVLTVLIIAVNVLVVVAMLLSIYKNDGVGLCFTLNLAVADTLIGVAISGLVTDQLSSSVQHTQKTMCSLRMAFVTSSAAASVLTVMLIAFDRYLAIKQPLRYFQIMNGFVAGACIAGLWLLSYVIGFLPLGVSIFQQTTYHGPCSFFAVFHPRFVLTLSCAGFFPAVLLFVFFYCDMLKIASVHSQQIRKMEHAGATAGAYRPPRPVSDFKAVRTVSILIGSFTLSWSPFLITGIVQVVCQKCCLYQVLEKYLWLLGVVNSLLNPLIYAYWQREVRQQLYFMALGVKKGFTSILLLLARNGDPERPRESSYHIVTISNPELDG
Experiment: cAMP activity in HIT-T15 cells (cAMP dynamic kit, FRET)
Assay type: cell-based, hamster
Protocol: To check whether the cyclohexene derivatives according to the present invention activate cyclic adenosine monophosphate (cAMP), experiments were carried out, as follows.
The HIT-T15 cells were plated on a 96-well plate at 60,000 cells per well. On the next day of plating, the cells were treated with a varying concentration of each of the example compounds according to the present invention, and incubated at 37° C. for an hour. In this case, each of the treated compounds was used at six concentrations, ranging from 0.0032 to 10 μM, to treat the cells.
The cyclic adenosine monophosphate (cAMP) activity was measured according to the manufacturer's instruction using a cAMP dynamic kit commercially available from Cis Bio Inc. (Bedford, Mass.). The cells were lysed, and a level of cAMP was determined by a competitive immunoassay using D2-labeled cAMP and a cryptate-labeled anti-cAMP antibody. Fluorescence was read in Flex Station (Molecular Devices). […] Unlabeled cAMP in the cell lysate competed with the D2-labeled cAMP against the cryptate-labeled antibody. Since a decrease in the measured intensity of the FRET signals represents a level of cAMP in the cells, the cAMP activities of the compounds are calculated as a change in FRET signals by adjusting an amount of dimethyl sulfoxide (DMSO).

[1] = 1 hour at 37° C., six concentrations 0.0032 to 10 μM, read-out: EC50
[2] = EC50 (nM), 1 hour at 37° C., six concentrations 0.0032 to 10 μM

Structure (SMILES) | EC50 (Table 2, read-out: EC50 value) [nM] | EC50 [1] [nM] | EC50 [2] [nM] | EC50 (EC50 value, Table 2) [nM]
CCc1cnc(N2CCC(COc3ccc(C4=CCC(C(=O)N5CCC(=NO)CC5)CC4)cc3)CC2)nc1 (stereo not drawn) [Example 277, (4-(4-((1-(5-ethylpyrimidin-2-yl)piperidin-4-yl)methoxy)phenyl)cyclohex-3-enyl)(4-(hydroxyimino)piperidin-1-yl)methanone] | ≤ 50 |  |  | 
CCc1cnc(N2CCC(COc3ccc(C4=CCC(C(=O)N5CCCCC5)CC4)cc3F)CC2)nc1 (stereo not drawn) [Example 292, (4-(4-((1-(5-ethylpyrimidin-2-yl)piperidin-4-yl)methoxy)-3-fluorophenyl)cyclohex-3-enyl)(piperidin-1-yl)methanone] | ≤ 50 | 12 |  | 
CCc1cnc(N2CCC(COc3ccc(C4=CCC(C(=O)N5CCCC5)CC4)cc3F)CC2)nc1 (stereo not drawn) [Example 293, (4-(4-((1-(5-ethylpyrimidin-2-yl)piperidin-4-yl)methoxy)-3-fluorophenyl)cyclohex-3-enyl)(pyrrolidin-1-yl)methanone] | ≤ 50 | 18 |  | 
CCc1cnc(N2CCC(COc3ccc(C4=CCC(C(=O)N5CCC(O)CC5)CC4)cc3F)CC2)nc1 (stereo not drawn) [Example 294, (4-(4-((1-(5-ethylpyrimidin-2-yl)piperidin-4-yl)methoxy)-3-fluorophenyl)cyclohex-3-enyl)(4-hydroxypiperidin-1-yl)methanone] | ≤ 50 | 23 |  | 
CCc1cnc(N2CCC(COc3ccc(C4=CCC(C(=O)N5CC(=O)C5)CC4)cc3F)CC2)nc1 (stereo not drawn) [Example 295, 1-(4-(4-((1-(5-ethylpyrimidin-2-yl)piperidin-4-yl)methoxy)-3-fluorophenyl)cyclohex-3-enecarbonyl)azetidin-3-one] | ≤ 50 | 43 |  | 
CCc1cnc(N2CCC(COc3ccc(C4=CCC(C(=O)N5CCC(CCO)CC5)CC4)cc3F)CC2)nc1 (stereo not drawn) [Example 296, (4-(4-((1-(5-ethylpyrimidin-2-yl)piperidin-4-yl)methoxy)-3-fluorophenyl)cyclohex-3-enyl)(4-(2-hydroxyethyl)piperidin-1-yl)methanone] | ≤ 50 | 6.8 |  | 
CCc1cnc(N2CCC(COc3ccc(C4=CCC(C(=O)N5CCC(N6CCCCC6)CC5)CC4)cc3F)CC2)nc1 (stereo not drawn) [Example 297, 1,4′-bipiperidin-1′-yl(4-(4-((1-(5-ethylpyrimidin-2-yl)piperidin-4-yl)methoxy)-3-fluorophenyl)cyclohex-3-enyl)methanone] |  | 120 |  | 
CCc1cnc(N2CCC(COc3ccc(C4=CCC(C(=O)N5CCC(N6CCCC6)CC5)CC4)cc3F)CC2)nc1 (stereo not drawn) [Example 298, (4-(4-((1-(5-ethylpyrimidin-2-yl)piperidin-4-yl)methoxy)-3-fluorophenyl)cyclohex-3-enyl)(4-(pyrrolidin-1-yl)piperidin-1-yl)methanone] |  | 150 |  | 
CCc1cnc(N2CCC(COc3ccc(C4=CCC(C(=O)N5CCOCC5)CC4)cc3F)CC2)nc1 (stereo not drawn) [Example 299, (4-(4-((1-(5-ethylpyrimidin-2-yl)piperidin-4-yl)methoxy)-3-fluorophenyl)cyclohex-3-enyl)(morpholino)methanone] | ≤ 50 | 12 |  | 
CCc1cnc(N2CCC(COc3ccc(C4=CCC(C(=O)N5CCSCC5)CC4)cc3F)CC2)nc1 (stereo not drawn) [Example 300, (4-(4-((1-(5-ethylpyrimidin-2-yl)piperidin-4-yl)methoxy)-3-fluorophenyl)cyclohex-3-enyl)(thiomorpholino)methanone] | ≤ 50 | 8.5 |  | 
CCc1cnc(N2CCC(COc3ccc(C4=CCC(C(=O)N5CCC5)CC4)cc3F)CC2)nc1 (stereo not drawn) [Example 301, azetidin-1-yl(4-(4-((1-(5-ethylpyrimidin-2-yl)piperidin-4-yl)methoxy)-3-fluorophenyl)cyclohex-3-enyl)methanone] | ≤ 50 | 19 |  | 
CCc1cnc(N2CCC(COc3ccc(C4=CCC(C(=O)NC5CC5)CC4)cc3F)CC2)nc1 (stereo not drawn) [Example 302, N-cyclopropyl-4-(4-((1-(5-ethylpyrimidin-2-yl)piperidin-4-yl)methoxy)-3-fluorophenyl)cyclohex-3-enecarboxamide] |  | 110 |  | 
CCc1cnc(N2CCC(COc3ccc(C4=CCC(C(=O)NC5CCC5)CC4)cc3F)CC2)nc1 (stereo not drawn) [Example 303, N-cyclobutyl-4-(4-((1-(5-ethylpyrimidin-2-yl)piperidin-4-yl)methoxy)-3-fluorophenyl)cyclohex-3-enecarboxamide] | ≤ 50 | 29 |  | 
CCc1cnc(N2CCC(COc3ccc(C4=CCC(C(=O)NC5CCCC5)CC4)cc3F)CC2)nc1 (stereo not drawn) [Example 304, N-cyclopentyl-4-(4-((1-(5-ethylpyrimidin-2-yl)piperidin-4-yl)methoxy)-3-fluorophenyl)cyclohex-3-enecarboxamide] | ≤ 50 | 20 |  | 
CCc1cnc(N2CCC(COc3ccc(C4=CCC(C(=O)NC5CCCCC5)CC4)cc3F)CC2)nc1 (stereo not drawn) [Example 305, N-cyclohexyl-4-(4-((1-(5-ethylpyrimidin-2-yl)piperidin-4-yl)methoxy)-3-fluorophenyl)cyclohex-3-enecarboxamide] | ≤ 50 | 24 |  | 
CCc1cnc(N2CCC(COc3ccc(C4=CCC(C(=O)N5CCC6(CC5)OCCO6)CC4)cc3F)CC2)nc1 (stereo not drawn) [Example 306, (4-(4-((1-(5-ethylpyrimidin-2-yl)piperidin-4-yl)methoxy)-3-fluorophenyl)cyclohex-3-enyl)(1,4-dioxa-8-azaspiro[4.5]decan-8-yl)methanone] |  |  | 8.9 | ≤ 50
CCc1cnc(N2CCC(COc3ccc(C4=CCC(C(=O)NCC(F)(F)F)CC4)cc3F)CC2)nc1 (stereo not drawn) [Example 307, 4-(4-((1-(5-ethylpyrimidin-2-yl)piperidin-4-yl)methoxy)-3-fluorophenyl)-N-(2,2,2-trifluoroethyl)cyclohex-3-enecarboxamide] |  | 88 |  | 
CCc1cnc(N2CCC(COc3ccc(C4=CCC(C(=O)N5CCC(=O)CC5)CC4)cc3F)CC2)nc1 (stereo not drawn) [Example 308, 1-(4-(4-((1-(5-ethylpyrimidin-2-yl)piperidin-4-yl)methoxy)-3-fluorophenyl)cyclohex-3-enecarbonyl)piperidin-4-one] |  |  | 23 | ≤ 50
CCc1cnc(N2CCC(COc3ccc(C4=CCC(C(=O)N5CC(O)C5)CC4)cc3F)CC2)nc1 (stereo not drawn) [Example 309, (4-(4-((1-(5-ethylpyrimidin-2-yl)piperidin-4-yl)methoxy)-3-fluorophenyl)cyclohex-3-enyl)(3-hydroxyazetidin-1-yl)methanone] | ≤ 50 | 11 |  | 
CC(C)(C)OC(=O)N1CCC(COc2ccc(C3=CCC(C(=O)N4CCC(O)CC4)CC3)nc2)CC1 (stereo not drawn) [Example 310, tert-butyl 4-((6-(4-(4-hydroxypiperidine-1-carbonyl)cyclohex-1-enyl)pyridin-3-yloxy)methyl)piperidine-1-carboxylate] | ≤ 50 | 33 |  | 
CC(C)(C)OC(=O)N1CCC(COc2ccc(C3=CCC(C(=O)N4CCCCC4)CC3)nc2)CC1 (stereo not drawn) [Example 311, tert-butyl 4-((6-(4-(piperidine-1-carbonyl)cyclohex-1-enyl)pyridin-3-yloxy)methyl)piperidine-1-carboxylate] |  | 79 |  | 
CC(C)(C)OC(=O)N1CCC(COc2ccc(C3=CCC(C(=O)N4CCCC4)CC3)nc2)CC1 (stereo not drawn) [Example 312, tert-butyl 4-((6-(4-(pyrrolidine-1-carbonyl)cyclohex-1-enyl)pyridin-3-yloxy)methyl)piperidine-1-carboxylate] |  | 120 |  | 
CCc1cnc(N2CCC(COc3ccc(C4=CCC(C(=O)NCCO)CC4)cc3F)CC2)nc1 (stereo not drawn) [Example 313, 4-(4-((1-(5-ethylpyrimidin-2-yl)piperidin-4-yl)methoxy)-3-fluorophenyl)-N-(2-hydroxyethyl)cyclohex-3-enecarboxamide] |  | 120 |  | 
CCc1cnc(N2CCC(COc3ccc(C4=CCC(C(=O)NCC(F)F)CC4)cc3F)CC2)nc1 (stereo not drawn) [Example 314, N-(2,2-difluoroethyl)-4-(4-((1-(5-ethylpyrimidin-2-yl)piperidin-4-yl)methoxy)-3-fluorophenyl)cyclohex-3-enecarboxamide] |  | 61 |  | 
CC(C)c1noc(N2CCC(COc3ccc(C4=CCC(C(=O)N5CCCC5)CC4)cn3)CC2)n1 (stereo not drawn) [Example 315, (4-(6-((1-(3-isopropyl-1,2,4-oxadiazol-5-yl)piperidin-4-yl)methoxy)pyridin-3-yl)cyclohex-3-enyl)(pyrrolidin-1-yl)methanone] |  | 68 |  | 
CC(C)c1noc(N2CCC(COc3ccc(C4=CCC(C(=O)N5CCCCC5)CC4)cn3)CC2)n1 (stereo not drawn) [Example 316, (4-(6-((1-(3-isopropyl-1,2,4-oxadiazol-5-yl)piperidin-4-yl)methoxy)pyridin-3-yl)cyclohex-3-enyl)(piperidin-1-yl)methanone] | ≤ 50 | 37 |  | 
